Data taken from ChEMBL document CHEMBL2029299, “Discovery of novel EGFR tyrosine kinase inhibitors by structure-based virtual screening” (Bioorg Med Chem Lett, 2012).
pIC50: −log10 of the molar value.

Legend:
[1] = target: Epidermal growth factor receptor (Homo sapiens, UniProt P00533); test: Inhibition of EGFR after 50 mins by HTRF assay
[2] = tested on: A-431; test: Antiproliferative activity against human A431 cells overexpressing EGFR after 72 hrs by MTT assay; conditions: A-431, 72 h
[3] = tested on: NIH3T3; test: Antiproliferative activity against mouse NIH/3T3 cells after 72 hrs by MTT assay; conditions: NIH3T3, 72 h

Epidermal growth factor receptor, sequence (P00533 whole entry): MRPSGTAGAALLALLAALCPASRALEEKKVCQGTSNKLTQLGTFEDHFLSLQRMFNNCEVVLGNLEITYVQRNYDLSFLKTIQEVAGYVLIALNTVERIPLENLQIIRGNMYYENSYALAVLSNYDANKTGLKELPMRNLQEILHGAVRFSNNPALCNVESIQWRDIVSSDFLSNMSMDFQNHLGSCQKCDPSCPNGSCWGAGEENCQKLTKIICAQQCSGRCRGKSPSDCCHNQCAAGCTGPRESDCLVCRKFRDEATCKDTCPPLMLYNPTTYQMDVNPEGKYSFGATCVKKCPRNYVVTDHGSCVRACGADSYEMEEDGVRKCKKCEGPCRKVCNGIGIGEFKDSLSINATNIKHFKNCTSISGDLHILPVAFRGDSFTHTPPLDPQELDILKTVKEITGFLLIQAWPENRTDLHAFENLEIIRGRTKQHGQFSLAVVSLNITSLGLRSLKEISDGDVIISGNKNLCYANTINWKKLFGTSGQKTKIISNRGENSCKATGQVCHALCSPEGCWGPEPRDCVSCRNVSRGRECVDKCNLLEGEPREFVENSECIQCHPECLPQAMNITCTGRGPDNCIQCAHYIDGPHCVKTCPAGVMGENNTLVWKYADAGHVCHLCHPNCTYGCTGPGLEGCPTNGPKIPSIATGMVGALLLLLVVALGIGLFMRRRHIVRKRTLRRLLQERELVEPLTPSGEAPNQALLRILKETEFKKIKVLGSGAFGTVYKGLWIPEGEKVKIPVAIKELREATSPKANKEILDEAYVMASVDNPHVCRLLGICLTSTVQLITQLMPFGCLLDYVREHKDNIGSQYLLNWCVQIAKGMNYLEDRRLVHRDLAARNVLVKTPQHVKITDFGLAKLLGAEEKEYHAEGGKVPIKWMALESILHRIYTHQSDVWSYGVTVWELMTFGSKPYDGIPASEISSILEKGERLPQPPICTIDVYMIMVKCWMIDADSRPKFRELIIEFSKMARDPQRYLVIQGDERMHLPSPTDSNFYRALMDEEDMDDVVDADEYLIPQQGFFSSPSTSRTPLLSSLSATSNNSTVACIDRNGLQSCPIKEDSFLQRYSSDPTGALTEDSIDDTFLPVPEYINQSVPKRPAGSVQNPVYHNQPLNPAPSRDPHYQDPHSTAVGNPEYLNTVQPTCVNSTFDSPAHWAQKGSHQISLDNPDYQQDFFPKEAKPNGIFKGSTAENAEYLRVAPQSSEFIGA

| Compound | pIC50 [1] | pIC50 [2] | pIC50 [3] |
| --- | --- | --- | --- |
| Cc1ccc(N2NC(=O)/C(=C\c3ccc(-c4cc([N+](=O)[O-])ccc4O)o3)C2=O)cc1C | – | – | 4.43 |
| CS(=O)(=O)CCNCc1ccc(-c2ccc3ncnc(Nc4ccc(OCc5cccc(F)c5)c(Cl)c4)c3c2)o1 [LAPATINIB] | – | – | 5.37 |
| Cc1nn(C)cc1C(=O)Nc1ccn(Cc2c(F)cccc2Cl)n1 | – | – | < 4.30 |
| Cn1c(NCc2cccc(C(F)(F)F)c2)cc(=O)n(C)c1=O | 4.08 | < 4.30 | < 4.30 |
| Cc1cccc(N2NC(=O)/C(=C/c3ccc(-c4ccccc4F)o3)C2=O)c1 | 4.64 | 4.52 | < 4.30 |
| C=C(N/N=C/c1cn[nH]c1-c1ccccc1)[C@H](C)Cc1ccccc1 | – | – | < 4.30 |

More lines, main results first:

| pIC50 [1] | pIC50 [2] | Compound | pIC50 [3] |
| --- | --- | --- | --- |
| 5.25 | 4.72 | O=C1NN(c2ccc(F)cc2)C(=O)/C1=C\c1cccc(OCc2ccccc2F)c1 | 4.64 |
| 5.28 | 4.78 | Nc1nn2c(=O)cc(-c3ccccc3)[nH]c2c1/N=N/c1ccc2c(c1)OCO2 | 4.34 |
| 5.17 | 4.71 | O=C(Cn1c(-c2ccccc2)cc(=O)n2ncnc12)NNC(=S)Nc1ccccc1 | 4.70 |
| 5.07 | 4.85 | Cc1ccc(N2NC(=O)/C(=C/c3ccc(OCc4ccccc4)cc3)C2=O)cc1Cl | 4.38 |
| 5.01 | 4.40 | O=S(=O)(c1ccc(/N=C/c2cc(Br)ccc2O)cc1)N1CCCCC1 | < 4.30 |
| 5.46 | 4.63 | O=C1NN(c2ccc(F)c(Cl)c2)C(=O)/C1=C\c1cccc(OC(=O)c2cccs2)c1 | 4.55 |
| 4.31 | 4.57 | O=C(Cc1ccc(F)cc1)Nc1cc(SC[C@@H](O)CO)cc([N+](=O)[O-])c1 | < 4.30 |
| 5.08 | < 4.30 | CCOc1ccc(-c2cc(C(F)(F)F)c(C#N)c(SCC(=O)NCC(=O)O)n2)cc1 | < 4.30 |
